System: Streptococcus mutans
Assay: Killing efficacy against Streptococcus mutans in vitro (cfu count after treatment)
Type: cell-based
Details: inoculum 2.71×10^4 cfu/ml, FIG. 1
Protocol: Because the primary bacterium responsible for dental caries (cavities) is Streptococcus mutans, the killing efficacy of agmatine and EGCG, alone and in combination, was determined against Streptococcus mutans. Killing efficacy was measured in vitro using Streptococcus mutans cells grown in brain heart infusion (BHI) plates for at least 24-48 hours at 37° C. Each experiment was initiated by collecting an individual colony from the BHI plate and growning the colony overnight at 37° C. and 5% CO2 in BHI liquid media. Streptococcus mutans cells were then passaged 2 times in chemically defined media for Streptococcus mutans and grown overnight at 37° C. and 5% CO2. The absorbance at A600 of the culture was measured to determine the bacterial cell concentration of the inoculum. Once the desired bacterial concentration was reached, Streptococcus mutans inoculum was plated on cell culture plates previously prepared with a range of concentrations of EGCG alone, agmatine alone, or EGCG and agmatine in combination. The plates streaked with inoculum were incubated for at least 24 hours at 37° C. and 5% CO2. After incubation, the cells were transferred to sterile tubes, plated on BHI plate using an Autoplate 4000, and incubated for at least 36 hours at 37° C. Colonies were counted and colony forming units (cfu) were calculated as recommended by Autoplate 4000 guide. […]

Row | SMILES | bacterial concentration of Streptococcus mutans following treatment (7.5 mg/ml agmatine alone) | bacterial concentration of Streptococcus mutans following treatment (50 μg/ml EGCG alone)
1 | NCCCCN=C(N)N [agmatine, (4-aminobutyl)guanidine] | 6.50×10^1 cfu/ml | –
2 | O=C(O[C@@H]1Cc2c(O)cc(O)cc2O[C@@H]1c1cc(O)c(O)c(O)c1)c1cc(O)c(O)c(O)c1 [EGCG, epigallocatechin gallate] | – | 6.00×10^1 cfu/ml

From patent US11116713B2, “Oral care compositions and methods” (priority 2018, dated 2021)
